According to patent US7868163B2, “Adenyl dinucleotides with antitumour activity and a method of preparing thereof” (Universita' Degli Studi Di Genova, priority 2005, dated 2011):

What was measured:
[1] = tested on: A. polypoides ADP-ribosyl cyclase; assay: Hydrolysis by purified Axinella polypoides ADP-ribosyl cyclase; conditions: purified A. polypoides cyclase; P18 to cADPR and adenine
Experimental: ADP-ribosyl cyclases from lower and higher Metazoa were incubated in the presence of 0.1 mM cADPR and 1 mM adenine at pH 7.4 in 10 mM Tris-HCl (A, B and C) or in PBS-glucose (D) at 22° C. (A and B) or at 37° C. (C and D) for 4 hours. Aliquots of the various incubations were deproteinised with TCA (trichloroacetic acid) and subjected to HPLC (analytical phosphate). Chromatograms representative of each incubation are shown. A. A. polypoides; B. A. californica; C. Human CD38 (recombinant); D. Human HeLa cells transfected with sense and antisense human CD38 (dashed chromatogram).
In table 1, the absolute values of the peak-forming and -hydrolysing activities are compared with the cADPR-forming and -hydrolysing activities for each enzyme. The activities are expressed as nmol/min/mg.

[2] = target: NAD-glycohydrolase (NAD-ase, from Neurospora) (Neurospora crassa, UniProt Q7S936); assay: Resistance to NAD-glycohydrolase catalysed hydrolysis
NAD-glycohydrolase (NAD-ase, from Neurospora), sequence (Q7S936 20-243): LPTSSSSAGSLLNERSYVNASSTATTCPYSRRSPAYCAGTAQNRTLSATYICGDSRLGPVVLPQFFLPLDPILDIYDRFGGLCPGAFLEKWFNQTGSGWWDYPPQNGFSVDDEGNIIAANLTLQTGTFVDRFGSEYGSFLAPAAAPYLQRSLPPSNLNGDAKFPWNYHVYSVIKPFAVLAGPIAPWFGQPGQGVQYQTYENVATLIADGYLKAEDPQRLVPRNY
Experimental: The HPLC fractions were lyophilised, resuspended in 200 μl water and the pH eas adjusted to 7.5 with 5N NaOH. Then, in order to remove all traces of NAD^+ and cADPR (which might interfere with the enzymatic assay), NAD-glycohydrolase (NAD-ase, from Neurospora, Sigma) (0.013 IU), recombinant CD38 (0.1 μg, provided by Prof. H. C. Lee, Minneapolis, Minn.) and 2 mM MgCl2 were added to each fraction. […] All fractions were incubated at 37° C. for 18 hours, and the enzymes were removed by filtration with Immobilon-P membranes (Millipore, Bedford, Mass.). The samples were then subdivided into two aliquots and the P18 determination reactions were performed in 96 well plates, at room temperature. 50 μl of a mixture containing 30 mM nicotinamide, 100 mM sodium phosphate, with or without 0.1 μg/μl of ADP-ribosyl cyclase purified from A. polypoides, were added to 100 μl of each sample.

[3] = target: T1, A. californica ADP-ribosyl cyclase (Aplysia californica, UniProt P29241); assay: Hydrolysis by Aplysia californica ADP-ribosyl cyclase; type: in vitro ADME; conditions: P18 to adenine and ADPR
T1 construct: The cyclase purified from the mollusc Aplysia californica was purchased from Sigma; purchased Sigma; host or cells: purified from the mollusc
T1 sequence (P29241 25-282): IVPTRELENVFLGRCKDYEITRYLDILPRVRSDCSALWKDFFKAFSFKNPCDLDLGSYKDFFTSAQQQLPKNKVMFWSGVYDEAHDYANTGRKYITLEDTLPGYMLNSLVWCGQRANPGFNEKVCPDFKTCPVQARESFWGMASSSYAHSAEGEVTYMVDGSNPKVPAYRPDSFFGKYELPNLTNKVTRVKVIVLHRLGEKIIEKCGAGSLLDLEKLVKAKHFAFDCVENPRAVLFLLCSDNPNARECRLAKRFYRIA
Experimental: (A and B) or at 37° C. (C and D) for 4 hours. […] Chromatograms representative of each incubation are shown. A. A. polypoides; B. A. californica; C.
The activities are expressed as nmol/min/mg.

**Q.** With `Nc1ncnc2c1ncn2[C@@H]1O[C@H](COP(=O)(O)OP(=O)(O)OC[C@H]2O[C@@H](n3cnc4ncnc-4c3N)[C@H](O)[C@@H]2O)[C@@H](O)[C@H]1O` [P18] as the compound, how does the hydrolysis activity [1] read?
**A.** 10.5^2 nmol/min/mg

**Q.** And the “resistance to NAD-ase catalysed hydrolysis” value [2]?
**A.** resistance

**Q.** What about the hydrolysis activity [3] of the same compound?
**A.** 3.5^1 nmol/min/mg
